Laboratory results: PMC8037814, “Polymorphic Characterization, Pharmacokinetics, and Anti-Inflammatory Activity of Ginsenoside Compound K Polymorphs” (Molecules, 2021)
Where “and” joins values, the source holds several entries; their conditions need not be identical. Identical values can stand only once. Like-named read-outs stand apart in the source and are kept apart here.

Tests used:
[1] = Pharmacokinetics after oral administration of CK polymorphs in rats (20 mg/kg); type: in vivo, Sprague-Dawley rats; details: p.o. 20 mg/kg, individual rats 1-3
[2] = tested on: carrageenan-induced acute paw inflammation; experiment: Paw swelling test induced by carrageenan in rats; type: in vivo, Sprague-Dawley rats; design: paw volume: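 right hind paw volume measured with a plethysmometer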; details: listed as From I; for paw volume / paw edema: mean±SD of 6 rats; for edema inhibition: versus model group
Outline: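 Rats (six per group, half of each sex) received compound at 10 or 20 mg/kg, suspended in 0.5% CMC-Na, before carrageenan challenge. Paw edema (%) = (Vn − V0)/V0 × 100 over time; inhibitory rate relative to model group, compared by t-test.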

[3] = DSC thermal analysis of CK polymorphs; type: physicochemical; details: 20 K/min from 20 to 400 °C, dry nitrogen flow
Protocol: DSC measurements were performed on a DSC204 Phoenix calorimeter (NETZSCH, Selb, Germany) with a heating rate of 20 K/min from 20 to 400 °C. The dry nitrogen flow was about 50 mL/min. Data were analyzed using NETZSCH analysis software.

[4] = Pharmacokinetics after oral administration of CK polymorphs in rats (20 mg/kg); type: in vivo, Sprague-Dawley rats; details: 20 mg/kg; for bioavailability: p.o. 20 mg/kg vs i.v. 10 mg/kg, dose-adjusted AUC ratio, read-out: Fabs (absolute bioavailability); for half-life: read-out: t1/2z (converted); for Vd/F: read-out: Vz/F
[5] = 10 mg/kg p.o. qd 3 days, 3h after carrageenan
[6] = 10 mg/kg p.o. qd 3 days, 4h after carrageenan
[7] = 10 mg/kg p.o. qd 3 days, 5h after carrageenan
[8] = 10 mg/kg p.o. qd 3 days, 6h after carrageenan
[9] = 20 mg/kg p.o. qd 3 days, 3h after carrageenan
[10] = 20 mg/kg p.o. qd 3 days, 4h after carrageenan
[11] = 20 mg/kg p.o. qd 3 days, 5h after carrageenan
[12] = 20 mg/kg p.o. qd 3 days, 6h after carrageenan
[13] = female rats, p.o. 20 mg/kg, mean ± SD (n = 3)
[14] = female, Sprague-Dawley, rat, plasma, po, female rats, p.o. 20 mg/kg, mean ± SD (n = 3)
[15] = male rats, p.o. 20 mg/kg, mean ± SD (n = 3)
[16] = male, Sprague-Dawley, rat, plasma, po, male rats, p.o. 20 mg/kg, mean ± SD (n = 3)

## CC(C)=CCCC(C)(OC1OC(CO)C(O)C(O)C1O)C1CCC2(C)C1C(O)CC1C3(C)CCC(O)C(C)(C)C3CCC12C [Form I, 20-O-β-D-glucopyranosyl-20(S)-protopanaxadiol]
[1]; female rats
  AUC(0-t): 2017.26 ng·h/mL and 2120.78 ng·h/mL and 2470.06 ng·h/mL
  AUC(0-∞): 2050.82 ng·h/mL and 2124.00 ng·h/mL and 2473.25 ng·h/mL
  CLz/F: 162 mL/min/kg and 157 mL/min/kg and 135 mL/min/kg
  Cmax: 440.01 ng/mL and 325.66 ng/mL and 594.33 ng/mL
  Vz/F: 56.64 L/kg and 34.89 L/kg and 29.88 L/kg
[1]; male rats
  AUC(0-t): 762.48 ng·h/mL and 1612.79 ng·h/mL and 1074.22 ng·h/mL
  AUC(0-∞): 762.82 ng·h/mL and 1709.08 ng·h/mL and 1092.09 ng·h/mL
  CLz/F: 437 mL/min/kg and 195 mL/min/kg and 305.2 mL/min/kg
  Cmax: 168.60 ng/mL and 425.66 ng/mL and 183.98 ng/mL
  t1/2z: 2.87 h and 3.98 h and 2.06 h
[2]; 10 mg/kg p.o. qd 3 days, 0h (before carrageenan)
  paw volume: 1.60±0.13
[2]; [5]
  paw edema: 61.02±11.75%
  paw volume: 2.57±0.14
  edema inhibition: 5.06%
[2]; [6]
  paw edema: 51.30±10.45%
  paw volume: 2.42±0.19
  edema inhibition: 17.74%
[2]; [7]
  paw edema: 34.69±9.89%
  paw volume: 2.15±0.16
  edema inhibition: 32.99%
[2]; [8]
  paw edema: 27.53±8.13%
  paw volume: 2.03±0.08
  edema inhibition: 29.97%
[2]; 20 mg/kg p.o. qd 3 days, 0h (before carrageenan)
  paw volume: 1.62±0.13
[2]; [9]
  paw edema: 52.64±19.00%
  paw volume: 2.45±0.16
  edema inhibition: 18.10%
[2]; [10]
  paw edema: 43.25±16.04%
  paw volume: 2.30±0.11
  edema inhibition: 30.65%
[2]; [11]
  paw edema: 31.96±15.31%
  paw volume: 2.12±0.08
  edema inhibition: 38.25%
[2]; [12]
  paw edema: 24.52±13.39%
  paw volume: 2.00±0.09
  edema inhibition: 37.62%
[3]
  DSC onset of the decomposition endotherm (thermodynamical stability): 267.5 °C
[4]; female rats, p.o. 20 mg/kg, individual rats 1-3
  t1/2z: 2.57 h and 2.56 h
[4]; [13]
  AUC(0–t): 2202.7 ± 237.26 ng·h/mL
  AUC(0–∞): 2216.0 ± 225.74 ng·h/mL
  CLz/F: 152 ± 14.7 mL/min/kg
  Cmax: 453.33 ± 134.83 ng/mL and 453.3 ± 134.8 ng/mL
  Vz/F: 40.5 ± 14.2 L/kg
  t1/2z: 3.0 ± 0.84 h
[4]; female, Sprague-Dawley, rat, plasma, po, female rats
  bioavailability: 6.84%
[4]; female, Sprague-Dawley, rat, plasma, po, female rats, p.o. 20 mg/kg, individual rats 1-3
  half-life: 4.03 h
[4]; [14]
  AUC(0-inf): 2220 ± 226 ng·h/mL
  Vd/F: 40.5 ± 14.2 L/kg
  half-life: 3.05 ± 0.84 h
[4]; male rats, p.o. 20 mg/kg, individual rats 1-3
  Vz/F: 77.79 L/kg and 48.49 L/kg and 105.00 L/kg
[4]; [15]
  AUC(0–t): 1149.8 ± 430.17 ng·h/mL
  AUC(0–∞): 1188.0 ± 480.37 ng·h/mL
  CLz/F: 312 ± 121 mL/min/kg
  Cmax: 259.4 ± 144.2 ng/mL
  Vz/F: 77.1 ± 28.3 L/kg
  t1/2z: 3.0 ± 0.96 h
[4]; male, Sprague-Dawley, rat, plasma, po, male rats
  bioavailability: 3.92%
[4]; [16]
  AUC(0-t): 1150 ± 430 ng·h/mL
  Vd/F: 77.1 ± 28.3 L/kg
  half-life: 2.97 ± 0.96 h
[4]; male, Sprague-Dawley, rat, plasma, po, male rats, p.o. 20 mg/kg, mean ± SD (n = 3), read-out: CLz/F (converted)
  CL/F: 312 mL/min/kg
[4]; male, Sprague-Dawley, rat, plasma, po, male rats, p.o. 20 mg/kg, mean ± SD (n = 3), read-out: Cmax
  Cmax: 259 ± 144 ng/mL
